Key:
potassium arsenate = compound: O=[As]([O-])(O)O.[K+] [potassium arsenate]; test: thermal stability z-score vs DMSO; higher = more thermally stabilized by treatment; conditions: HeLa; arsenate concentration 1 mM
Description: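 Cellular thermal proteome profiling in HeLa cells treated with 1 mM arsenate for 1 h (DMSO pretreatment), heated to ten temperatures (37-66.3 °C). Soluble protein was quantified by TMT mass spectrometry relative to DMSO controls; the thermal stability score was transformed to a z-score; mean of n = 3 experiments.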

lipoamide = compound: NC(=O)CCCCC1CCSS1 [lipoamide]; test: as above; conditions: HeLa, lipoamide concentration 100 µM
Description: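 Cellular thermal proteome profiling in HeLa cells. Cells were treated with 100 µM lipoamide for 1 h, with or without 1 mM arsenate for a further 1 h, then heated to ten temperatures (37-66.3 °C), and soluble protein was quantified by TMT mass spectrometry relative to 0.1% DMSO controls. The thermal stability score (sum of log2 fold changes minus the abundance score) was transformed to a z-score; mean of n = 3 experiments.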

[1] = arsenate co-treatment: 1 mM arsenate 1 h
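Note: each temperature applied for 3 min, abundance score taken as mean log2 fold change at the two lowest temperatures, z-score obtained by mean subtraction and division by SD.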

Sequence of UniProt Q8WV41 (Q8WV41 whole entry): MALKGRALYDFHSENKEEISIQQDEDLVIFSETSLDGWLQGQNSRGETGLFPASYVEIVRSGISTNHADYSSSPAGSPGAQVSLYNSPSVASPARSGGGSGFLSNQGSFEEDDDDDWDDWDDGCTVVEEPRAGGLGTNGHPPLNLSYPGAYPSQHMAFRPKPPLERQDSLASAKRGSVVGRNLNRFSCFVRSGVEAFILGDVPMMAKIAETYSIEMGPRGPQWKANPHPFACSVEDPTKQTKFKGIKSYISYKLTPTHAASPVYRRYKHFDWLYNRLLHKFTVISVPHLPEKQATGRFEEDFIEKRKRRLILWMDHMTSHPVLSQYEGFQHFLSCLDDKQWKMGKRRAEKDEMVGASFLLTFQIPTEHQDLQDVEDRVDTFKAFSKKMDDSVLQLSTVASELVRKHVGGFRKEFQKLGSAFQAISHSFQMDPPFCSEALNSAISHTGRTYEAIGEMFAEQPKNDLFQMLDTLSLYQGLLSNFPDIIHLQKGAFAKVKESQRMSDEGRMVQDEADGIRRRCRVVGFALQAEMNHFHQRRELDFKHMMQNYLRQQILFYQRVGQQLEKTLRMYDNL
Sequence of UniProt O75643 (O75643 whole entry): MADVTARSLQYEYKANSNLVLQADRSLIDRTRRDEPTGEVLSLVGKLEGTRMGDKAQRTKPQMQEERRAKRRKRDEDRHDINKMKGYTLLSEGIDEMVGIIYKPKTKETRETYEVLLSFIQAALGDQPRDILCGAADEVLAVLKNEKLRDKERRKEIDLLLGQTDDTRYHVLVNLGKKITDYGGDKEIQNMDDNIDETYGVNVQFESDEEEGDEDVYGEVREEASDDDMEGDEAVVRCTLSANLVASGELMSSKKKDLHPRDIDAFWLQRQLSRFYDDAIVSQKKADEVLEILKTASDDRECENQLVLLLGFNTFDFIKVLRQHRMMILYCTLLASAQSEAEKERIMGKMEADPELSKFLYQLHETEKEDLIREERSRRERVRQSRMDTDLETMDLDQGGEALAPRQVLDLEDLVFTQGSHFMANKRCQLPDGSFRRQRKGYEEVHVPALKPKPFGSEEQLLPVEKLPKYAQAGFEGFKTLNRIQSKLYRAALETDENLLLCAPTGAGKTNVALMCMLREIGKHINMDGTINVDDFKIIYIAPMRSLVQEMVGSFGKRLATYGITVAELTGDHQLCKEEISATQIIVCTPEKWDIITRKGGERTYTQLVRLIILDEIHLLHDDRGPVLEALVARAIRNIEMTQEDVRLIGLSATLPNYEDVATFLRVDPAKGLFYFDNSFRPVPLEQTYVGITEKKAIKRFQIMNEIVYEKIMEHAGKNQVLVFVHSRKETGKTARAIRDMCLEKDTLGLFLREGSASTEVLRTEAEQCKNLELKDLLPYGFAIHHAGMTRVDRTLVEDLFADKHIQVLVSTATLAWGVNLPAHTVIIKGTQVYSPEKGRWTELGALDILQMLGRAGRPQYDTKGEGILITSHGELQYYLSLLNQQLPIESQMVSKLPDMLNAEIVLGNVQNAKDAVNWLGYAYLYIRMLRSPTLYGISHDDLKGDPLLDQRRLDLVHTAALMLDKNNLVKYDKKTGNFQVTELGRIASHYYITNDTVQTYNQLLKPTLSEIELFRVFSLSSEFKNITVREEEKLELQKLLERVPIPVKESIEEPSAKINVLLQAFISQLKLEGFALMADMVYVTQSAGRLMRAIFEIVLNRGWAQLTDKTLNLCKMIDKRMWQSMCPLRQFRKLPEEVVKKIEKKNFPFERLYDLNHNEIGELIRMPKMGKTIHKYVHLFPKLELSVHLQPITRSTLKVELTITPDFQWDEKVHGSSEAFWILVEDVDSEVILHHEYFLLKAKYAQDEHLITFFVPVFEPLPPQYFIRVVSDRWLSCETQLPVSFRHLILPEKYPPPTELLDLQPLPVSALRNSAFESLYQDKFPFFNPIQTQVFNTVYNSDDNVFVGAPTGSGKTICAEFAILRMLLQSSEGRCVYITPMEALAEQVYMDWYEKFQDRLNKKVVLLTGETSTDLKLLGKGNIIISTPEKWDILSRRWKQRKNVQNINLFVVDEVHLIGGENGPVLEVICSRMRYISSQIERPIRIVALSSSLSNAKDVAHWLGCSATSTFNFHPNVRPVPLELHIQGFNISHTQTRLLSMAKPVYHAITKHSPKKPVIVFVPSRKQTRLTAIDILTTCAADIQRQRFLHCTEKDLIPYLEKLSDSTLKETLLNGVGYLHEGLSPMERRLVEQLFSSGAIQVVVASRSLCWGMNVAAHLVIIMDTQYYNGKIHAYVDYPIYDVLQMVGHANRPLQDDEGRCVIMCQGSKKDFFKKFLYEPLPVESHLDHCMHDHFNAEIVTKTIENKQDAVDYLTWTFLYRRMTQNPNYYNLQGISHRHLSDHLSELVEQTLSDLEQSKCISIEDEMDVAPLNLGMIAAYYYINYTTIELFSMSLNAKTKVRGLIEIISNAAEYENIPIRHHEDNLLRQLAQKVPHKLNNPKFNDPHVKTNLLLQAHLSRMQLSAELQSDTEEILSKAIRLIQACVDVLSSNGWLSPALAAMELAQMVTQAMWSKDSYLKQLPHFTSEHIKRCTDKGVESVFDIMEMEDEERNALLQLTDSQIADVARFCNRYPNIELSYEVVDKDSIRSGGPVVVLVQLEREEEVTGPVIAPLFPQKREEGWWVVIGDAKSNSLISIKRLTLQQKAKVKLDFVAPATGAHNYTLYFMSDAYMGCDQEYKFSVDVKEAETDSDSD
Sequence of UniProt O60749 (O60749 whole entry): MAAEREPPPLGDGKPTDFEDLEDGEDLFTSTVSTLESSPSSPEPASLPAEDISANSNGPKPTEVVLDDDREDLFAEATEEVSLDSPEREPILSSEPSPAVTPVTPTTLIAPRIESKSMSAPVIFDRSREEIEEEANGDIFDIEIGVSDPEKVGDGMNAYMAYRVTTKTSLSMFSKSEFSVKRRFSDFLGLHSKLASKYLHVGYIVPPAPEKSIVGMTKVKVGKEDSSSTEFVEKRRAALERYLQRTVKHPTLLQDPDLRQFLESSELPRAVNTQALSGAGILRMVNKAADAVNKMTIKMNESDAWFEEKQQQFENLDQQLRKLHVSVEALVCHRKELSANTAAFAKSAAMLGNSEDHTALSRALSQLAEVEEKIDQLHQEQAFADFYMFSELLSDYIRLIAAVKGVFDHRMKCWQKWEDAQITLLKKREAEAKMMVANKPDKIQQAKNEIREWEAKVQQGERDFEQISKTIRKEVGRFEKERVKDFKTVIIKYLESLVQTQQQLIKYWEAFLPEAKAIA
Sequence of UniProt Q9Y5X1 (Q9Y5X1 whole entry): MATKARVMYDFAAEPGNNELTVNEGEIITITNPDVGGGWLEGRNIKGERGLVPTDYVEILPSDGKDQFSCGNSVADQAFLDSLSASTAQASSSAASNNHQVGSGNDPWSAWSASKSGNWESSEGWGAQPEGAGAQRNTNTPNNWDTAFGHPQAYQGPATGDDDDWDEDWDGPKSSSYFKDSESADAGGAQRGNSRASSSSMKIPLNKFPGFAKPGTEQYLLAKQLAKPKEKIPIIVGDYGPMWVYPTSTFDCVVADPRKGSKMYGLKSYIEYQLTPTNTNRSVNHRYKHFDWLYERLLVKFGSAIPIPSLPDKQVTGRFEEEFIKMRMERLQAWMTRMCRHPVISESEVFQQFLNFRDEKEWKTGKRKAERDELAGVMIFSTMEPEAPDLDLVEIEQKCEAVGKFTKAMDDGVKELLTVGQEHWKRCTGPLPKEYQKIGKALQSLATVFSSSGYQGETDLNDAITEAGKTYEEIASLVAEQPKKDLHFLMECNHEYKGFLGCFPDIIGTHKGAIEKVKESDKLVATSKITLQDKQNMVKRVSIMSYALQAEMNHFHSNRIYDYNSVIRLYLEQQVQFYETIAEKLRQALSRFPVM
Sequence of UniProt P62318 (P62318 whole entry): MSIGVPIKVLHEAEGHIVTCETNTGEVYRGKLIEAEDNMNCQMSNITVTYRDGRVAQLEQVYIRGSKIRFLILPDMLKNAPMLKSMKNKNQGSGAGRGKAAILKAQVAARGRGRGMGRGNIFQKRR
Sequence of UniProt P62316 (P62316 whole entry): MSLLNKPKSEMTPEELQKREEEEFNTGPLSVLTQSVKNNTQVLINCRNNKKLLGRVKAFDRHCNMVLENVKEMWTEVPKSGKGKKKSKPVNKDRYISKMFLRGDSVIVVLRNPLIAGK
Sequence of UniProt Q96H20 (Q96H20 whole entry): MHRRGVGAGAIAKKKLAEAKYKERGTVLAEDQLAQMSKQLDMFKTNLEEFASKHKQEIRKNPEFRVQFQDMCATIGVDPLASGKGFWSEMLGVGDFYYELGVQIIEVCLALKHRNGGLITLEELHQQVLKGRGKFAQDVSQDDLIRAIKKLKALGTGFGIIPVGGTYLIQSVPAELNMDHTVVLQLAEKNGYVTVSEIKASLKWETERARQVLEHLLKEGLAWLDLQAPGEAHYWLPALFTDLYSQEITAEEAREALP
Sequence of UniProt Q92966 (Q92966 whole entry): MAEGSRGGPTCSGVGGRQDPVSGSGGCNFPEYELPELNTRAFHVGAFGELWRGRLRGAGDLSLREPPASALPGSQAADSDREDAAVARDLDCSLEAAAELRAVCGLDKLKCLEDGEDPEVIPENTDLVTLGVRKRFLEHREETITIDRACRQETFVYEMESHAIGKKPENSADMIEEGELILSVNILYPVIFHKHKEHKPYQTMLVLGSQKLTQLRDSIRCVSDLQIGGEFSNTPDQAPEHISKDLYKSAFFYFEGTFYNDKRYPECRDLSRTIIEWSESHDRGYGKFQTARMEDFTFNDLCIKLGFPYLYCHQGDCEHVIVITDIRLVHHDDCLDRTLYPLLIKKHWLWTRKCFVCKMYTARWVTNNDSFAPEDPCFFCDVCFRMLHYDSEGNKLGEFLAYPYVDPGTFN
Sequence of UniProt Q9UMY4 (Q9UMY4 whole entry): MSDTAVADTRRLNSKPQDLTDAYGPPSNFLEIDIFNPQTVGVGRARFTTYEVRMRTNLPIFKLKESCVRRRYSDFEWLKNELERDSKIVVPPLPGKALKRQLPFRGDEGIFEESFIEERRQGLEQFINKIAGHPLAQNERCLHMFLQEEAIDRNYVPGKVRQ
Sequence of UniProt O75971 (O75971 whole entry): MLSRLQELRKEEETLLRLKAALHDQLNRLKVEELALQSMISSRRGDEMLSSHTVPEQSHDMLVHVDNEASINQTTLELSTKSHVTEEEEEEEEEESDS

Target	thermal stability z-score (potassium arsenate)	thermal stability z-score (lipoamide; [1])	thermal stability z-score (lipoamide; arsenate co-treatment: none)
SMS (UniProt P52788)	4.34	0.652	0.823
SMTN (UniProt P53814)	-0.4	0.0165	0.00756
SMU1 (UniProt Q2TAY7)	0.656	-0.141	-0.0867
SMYD2 (UniProt Q9NRG4)	1.28	0.863	0.716
SMYD3 (UniProt Q9H7B4)	-0.25	-0.135	-0.101
SMYD4 (UniProt Q8IYR2)	-0.0713	-0.0691	-0.00905
SMYD5 (UniProt Q6GMV2)	0.224	-0.19	-0.177
SNAP23 (UniProt O00161)	-0.16	0.994	1.06
SNAP25 (UniProt P60880)	-0.723	0.86	0.512
SNAP29 (UniProt O95721)	0.554	-0.254	0.547
SNAP47 (UniProt Q5SQN1)	-0.104	-0.303	-0.252
SNAPC1 (UniProt Q16533)	0.0437	-0.175	-0.207
SNAPC3 (UniProt Q92966)	-0.108	-0.219	-0.258
SNAPC5 (UniProt O75971)	0.158	-0.0463	0.216
SNAPIN (UniProt O95295)	0.267	0.164	0.647
SNCA (UniProt P37840)	-0.263	0.553	0.198
SNCG (UniProt O76070)	0.0455	1.49	0.999
SND1 (UniProt Q7KZF4)	-1.08	0.317	0.479
SNF8 (UniProt Q96H20)	-0.156	-0.129	-0.418
SNRNP27 (UniProt Q8WVK2)	0.444	0.418	-0.21
SNRNP40 (UniProt Q96DI7)	-0.213	0.383	-0.0333
SNRNP70 (UniProt P08621)	-0.58	-0.195	-0.247
SNRNP200 (UniProt O75643)	-0.662	-0.116	-0.285
SNRPA1 (UniProt P09661)	0.474	1.91	1.08
SNRPA (UniProt P09012)	0.938	0.0421	-0.126
SNRPB2 (UniProt P08579)	-0.319	0.953	0.704
SNRPB|SNRPN	0.578	0.508	0.162
SNRPC (UniProt P09234)	0.905	0.137	0.0659

Target	thermal stability z-score (potassium arsenate)	thermal stability z-score (lipoamide; [1])	thermal stability z-score (lipoamide; arsenate co-treatment: none)
SNRPD2 (UniProt P62316)	1.15	1.08	0.689
SNRPD3 (UniProt P62318)	0.399	0.93	0.207
SNRPF (UniProt P62306)	0.116	0.0402	-0.072
SNRPGP15|SNRPG	0.296	1.63	0.677
SNTB1 (UniProt Q13884)	1.29	-0.307	1.19
SNTB2 (UniProt Q13425)	-0.227	0.14	-0.309
SNU13 (UniProt P55769)	1.62	-0.119	0.0598
SNUPN (UniProt O95149)	-0.43	-0.201	-1.48
SNW1 (UniProt Q13573)	-0.395	-0.497	-0.726
SNX1 (UniProt Q13596)	0.327	0.0174	-0.29
SNX2 (UniProt O60749)	0.364	-0.0255	0.0641
SNX3 (UniProt O60493)	0.0169	-0.62	-0.231
SNX4 (UniProt O95219)	0.288	-0.688	-0.344
SNX5 (UniProt Q9Y5X3)	-0.458	-0.497	-0.998
SNX6 (UniProt Q9UNH7)	0.277	0.175	0.276
SNX8 (UniProt Q9Y5X2)	-0.369	1.1	-0.149
SNX9 (UniProt Q9Y5X1)	0.276	-0.0697	-0.0413
SNX12 (UniProt Q9UMY4)	0.108	-0.128	-0.00318
SNX15 (UniProt Q9NRS6)	0.121	-0.412	0.114
SNX16 (UniProt P57768)	-0.741	1.01	-0.515
SNX17 (UniProt Q15036)	-0.423	-0.581	0.118
SNX27 (UniProt Q96L92)	0.511	-0.141	0.167
SNX30 (UniProt Q5VWJ9)	-0.275	-0.254	0.144
SNX33 (UniProt Q8WV41)	-0.148	-0.136	0.0586
SOAT1 (UniProt P35610)	0.731	-1.32	-0.546
SOCS6 (UniProt O14544)	0.053	0.0176	0.0429
SOD1 (UniProt P00441)	-0.236	-0.57	-0.258
